Read-outs that look alike come from different tables or passages of the source.
Experiments:
A. castellanii Neff [1] = test: Anti-Acanthamoeba activity on trophozoites, alamarBlue colorimetric assay; format: cell-based, Acanthamoeba castellanii Neff; settings: for IC50: 96 h, read-out: IC50 A. castellanii Neff
Method: (§1) The amoeba strain used in this study was the type strain: Acanthamoeba castellanii Neff (ATCC 30010) which was axenically grown in PYG medium (0.75% (w/v) proteose peptone, 0.75% (w/v) yeast extract and 1.5% (w/v) glucose) containing 40 µg/mL of gentamicin (Biochrom AG, Cultek, Granollers, Barcelona, Spain). The murine macrophages J774A.1 (ATCC TIB-67) cell line was cultured in RPMI 1640 medium supplemented with 10% fetal bovine serum at 37 °C and 5% CO2 atmosphere, was used for the cytotoxicity assays. Successively, the evaluated molecules were also tested against two clinical isolates, Acanthamoeba griffini, genotype T3 obtained in a previous study, and Acanthamoeba polyphaga genotype T4 ATCC 30461, both axenically grown in the same medium as A. castellanii Neff.
(§2) To evaluate the biological activity of the fractions and molecules, the anti-Acanthamoeba experiments were carried out using the alamarBlue® colorimetric assay, as it was previously described. Briefly, Acanthamoeba strain was seeded in triplicate on 96-well microtiter plates (ThermoFisher™, Waltham, MA, USA) with 50 µL from a stock solution of 5 × 10^4 cells/mL and 50 µL of serial dilutions of the evaluated molecules in each well (1% DMSO was used to dissolve the highest dose of the compounds with no effects on the parasites). Two reference treatments such as chlorhexidine (chlorhexidine digluconate; Alfa Aesar) and voriconazole (Sigma), were used as positive controls. Finally, the alamarBlue® Reagent (Life Technologies, Madrid, Spain) was placed into each well at an amount equal to 10% of the final volume. Plates were incubated for 96 h at 26 °C with a slight agitation until their measurement in the EnSpire® Multimode Plate Reader (Perkin Elmer, Madrid, Spain) using fluorescence, at 570/585 nm.
(§3) The percentage of the growth inhibition, 50% inhibitory concentration (IC50 or CC50), was calculated by nonlinear regression analysis with 95% confidence limits using Sigma Plot 12.0 statistical analysis software (Systat Software). All experiments were performed three times, and the mean values were also calculated. A paired two-tailed t-test was used for analysis of the data. Values of p < 0.05 were considered significant.

[2] = Cytotoxicity test, alamarBlue assay; format: cell-based, murine; settings: mouse, 37 °C, mean ± SD
Method: as §1
The cytotoxicity effect of active molecules was evaluated in murine macrophage J774A.1 cell line (ATCC # TIB-67) following the same protocol described above for Acanthamoeba trophozoites. Then, plates containing alamarBlue® were incubated for 24 h at 37 °C in presence of CO2 at 5%.
as §3

A. griffini = test: Anti-Acanthamoeba activity on trophozoites, alamarBlue colorimetric assay; format: cell-based; settings: 96 h, read-out: IC50 A. griffini
Method: as §1, §2, §3

A. polyphaga = test: as above; format: cell-based; settings: 96 h, read-out: IC50 A. polyphaga
Method: as §1, §2, §3

[3] = test system: A. castellanii Neff cysts; test: In vitro activity against cysts (cysticidal assay, alamarBlue); format: cell-based, Acanthamoeba castellanii Neff; settings: mature cysts
Method: On the other side, cysticidal activity of 7OSTS (2) was determined also using the alamarBlue™ reagent and confirmed visually by inverted microscopy. Cysts of A. castellaniii Neff were prepared as previously described. First of all, trophozoites were transferred from PYG medium based cultures (trophozoite medium) to Neff’s encystment medium (NEM; 0.1 M KCl, 8 mM MgSO4·7H2O, 0.4 mM CaCl2·2H2O, 1 mM NaHCO3, 20 mM ammediol [2-amino-2-methyl-1,3-propanediol; Sigma Aldrich Chemistry Ltd., Madrid, Spain], pH 8.8, at 25 °C) and were cultured in this medium with gently shaking for a week in order to obtain mature cysts. In order to carry out the cysticidal assay, mature cysts were harvested and washed twice with PYG medium. Serial dilutions of 7OSTS (2) were made in PYG and place onto sterile 96-well microtiter plates. 5·10^4 mature cysts of Acanthamoeba/mL were added to the wells with 50 µL of 7OSTS (2) dilutions. After 7 days of incubation, the plate was centrifuged at 3000 rpm for 10 min. The supernatant was removed and replaced with 100 µL of fresh PYG medium in each well. Finally, 10 μL of the alamarBlue® Reagent was placed into each well. The plates were then incubated for 144 h at 28 °C and the emitted fluorescence was measured with the EnSpire® Multimode Plate Reader (Perkin Elmer, Madrid, Spain) using fluorescence, at 570/585 nm. […]

A. castellanii Neff [4] = test: Measurement of ATP levels (CellTiter-Glo); format: cell-based, Acanthamoeba castellanii Neff; settings: IC90, 24 h
Method: An appropriate level of ATP is necessary to maintain the cell metabolism. The effect of the drug on the ATP production was evaluated by incubating (10^5) of cells/mL with the previously calculated IC90 of 7OSTS (2) using the CellTiter-Glo Luminescent Cell Viability Assay. The luminescence of each assay was measured on the EnSpire®.

A. castellanii Neff [5] = test: Analysis of mitochondrial membrane potential (JC-1); format: cell-based, Acanthamoeba castellanii Neff; settings: IC90, 24 h
Method: The use of JC-1 mitochondrial membrane potential detection kit (Cayman Chemical) it is possible to detect the collapse of an electrochemical gradient across the mitochondrial membrane during apoptosis process. 10^5 amoebas/mL were treated with IC90 of 7OSTS (2) for 24 h, the cells were centrifuged (1000 rpm × 10 min) and suspended in JC-1 buffer. Images were taken on the EVOS FL inverted microscope. The staining pattern allows the identification of two groups in a cellular population: live cells will show only red fluorescence, but cells with low mitochondrial potential (undergoing PCD) will show a higher level of green fluorescence.

A. castellanii Neff [6] = test: Double-stain assay (Hoechst 33342/PI) for programmed cell death determination; format: cell-based, Acanthamoeba castellanii Neff; settings: IC90 concentration, 24 h
Method: 10^5 amoebas/well were incubated in a 24-well plate with the previously calculated IC90 of 7OSTS for 24 h. A double-stain apoptosis detection kit (Hoechst 33342/PI) (ThermoFisher™, Waltham, MA, USA) was used to carry out the experiment following the manufacturer’s recommendations. The images were obtained using the EVOS FL Cell Imaging System AMF4300, Life Technologies, USA. The double-staining pattern allows the identification of live cells with low level of fluorescence, cells undergoing PCD with a higher level of blue fluorescence (as chromatin condenses), and dead cells which will show low-blue and high-red fluorescence (as the propidium iodide stain enters the nucleus of dead cells).

A. castellanii Neff [7] = test: Plasma membrane permeability (SYTOX Green); format: cell-based, Acanthamoeba castellanii Neff; settings: IC90, 24 h
Method: In order to detect alterations of the membrane permeability in treated cells, the SYTOX Green (ThermoFischer^TM) assay was performed. Briefly, 10^5 trophozoite were washed and incubated in saline solution with SYTOX Green at a final concentration of 1 μM for 15 min in darkness. After that, IC90 of 7OSTS (2) was added to the cells and incubated for 24 h. Cells were observed and pictures were taken on the EVOS FL inverted microscope.

protein kinase A (PKA) = settings: cited from earlier work
[8] = target: cyclin-dependent kinase 4 (CDK4); set-up: method as in PMID 19132059, PMID 14552791; settings: cited from earlier work
protein kinase C (PKC) = settings: cited from earlier work
[9] = target: calcium/calmodulin-dependent protein kinase II (CaMKII); set-up: method as in PMID 19132059, PMID 14552791; settings: cited from earlier work
[10] = test system: human lung, colon, and nasopharyngeal carcinoma cell lines; set-up: method as in PMID 3112080; settings: read-out: IC50 cytotoxic activity; cited from earlier work
[11] = read-out: Macrophage J774A.1 CC50

Row | Compound | IC50 (A. castellanii Neff [1]; trophozoites, 26 °C, mean ± SD) [µM] | IC50 (A. griffini; trophozoites, 26 °C, mean ± SD) [µM] | IC50 (A. polyphaga; trophozoites, 26 °C, mean ± SD) [µM] | CC50 at 24 h ([2]; J774A.1 macrophage cells) [µM] | further results
1 | CNC1CC2OC(C)(C1OC)n1c3ccccc3c3c4c(c5c6ccccc6n2c5c31)C(=O)NC4=O (centres unmarked) [7OSTS (2), 7-oxostaurosporine] |  |  |  |  | IC50 (A. castellanii Neff [1]): 0.83 ± 0.09 µM; IC90 (A. castellanii Neff [1]; read-out: IC90 concentration): 2.91 ± 0.67 µM; IC50 ([3]; Acanthamoeba castellanii): 0.92 ± 0.33 µM; Cyst viability ([3]; incubation up to 144 h): non-viable cysts were observed; ATP level compared to the negative control (A. castellanii Neff [4]): 45%; Mitochondrial membrane potential (A. castellanii Neff [5]): decrease of the mitochondrial membrane potential; CC50 at 24 h [2, 11]: 5.2 ± 1.75 µM; Chromatin condensation (A. castellanii Neff [6]): induces chromatin condensation; IC50 (A. griffini): 0.96 ± 0.19 µM; IC50 (A. polyphaga): 5.51 ± 0.09 µM; Plasma membrane permeability (A. castellanii Neff [7]): plasmatic membrane damage
2 | O=C1NC(=O)c2c1c1c3ccccc3[nH]c1c1[nH]c3ccccc3c21 [Arcyriaflavin A (7), arcyriaflavin A] | 7.32 ± 0.45 | 7.53 ± 1.11 | 7.59 ± 0.73 |  | IC50 (protein kinase A (PKA)): > 2 µM; IC50 [8]: 0.14 µM; IC50 (protein kinase C (PKC)): > 100 µM; IC50 [9]: 0.025 µM
3 | O=C1NCc2c1c1c3ccccc3[nH]c1c1[nH]c3ccccc3c21 [K252c (6), K252c] | 6.17 ± 0.73 | 2.25 ± 0.32 | 5.59 ± 0.34 |  | IC50 (protein kinase A (PKA)): 25.7 µM
4 | CN[C@@H]1C[C@H]2O[C@@](C)([C@@H]1OC)n1c3ccccc3c3c4c(c5c6ccccc6n2c5c31)C(=O)NC4 [STS (1), staurosporine] |  |  |  |  | CC50 at 24 h [2, 11]: 8.74 ± 0.72 µM

Second part, led by results:

Row | IC50 (A. castellanii Neff [1]; trophozoites, 26 °C, mean ± SD) [µM] | IC50 (A. griffini; trophozoites, 26 °C, mean ± SD) [µM] | IC50 (A. polyphaga; trophozoites, 26 °C, mean ± SD) [µM] | Compound | CC50 at 24 h ([2]; J774A.1 macrophage cells) [µM] | further results
5 | 7.53 ± 0.73 | 23.9 ± 0.55 | > 40 | COC1C(=O)CC2OC1(C)n1c3ccccc3c3c4c(c5c6ccccc6n2c5c31)C(=O)NC4 (centres unmarked) [4’D4’OSTS (3), 4′-demethylamino-4′-oxostaurosporine] | > 40 | 
6 |  |  | 4.76 ± 0.08 | [H]/N=C(\N/C(=N/[H])NCCCCCCNC(=N)NC(=N)Nc1ccc(Cl)cc1)Nc1ccc(Cl)cc1 [Chlorhexidine, chlorhexidine] | 7.4 ± 0.39 | 
7 | 6.83 ± 2.6 | 14.5 ± 0.38 | > 40 | COC1=C(C)O[C@@H]2C[C@@]1(OC)n1c3ccccc3c3c4c(c5c6ccccc6n2c5c31)C(=O)NC4 [ICZ B (4), streptocarbazole B] | > 40 | 
8 | 5.37 ± 0.23 | 5.02 ± 0.18 | 7.47 ± 0.61 | CO[C@H]1[C@H](O)[C@@H](O)[C@H](n2c3c(Cl)cccc3c3c4c(c5c6cccc(Cl)c6[nH]c5c32)C(=O)NC4=O)O[C@@H]1CO [Rebeccamycin (5), rebeccamycin] |  | IC50 [10]: 0.4 to 98 µM
9 | 0.94 ± 0.29 | 0.1 ± 0.02 | 10.1 ± 2.21 | C[C@@H](c1ncncc1F)[C@](O)(Cn1cncn1)c1ccc(F)cc1F [Voriconazole, voriconazole] | 7.56 ± 0.77 | 

From paper PMC6836125, “Antiamoebic Activities of Indolocarbazole Metabolites Isolated from Streptomyces sanyensis Cultures” (Marine Drugs, 2019)
